Data taken from patent US5773239A, “Mannosidase inhibitors, process for their preparation and their use as therapeutic agents” (Mount Sinai Hospital Corporation., priority 1995, dated 1998).

Tests used:
[1] = target: T1, rat liver Golgi α-mannosidase II (Rattus norvegicus, UniProt P28494); experiment: Rat liver Golgi α-mannosidase II assay; assay type: biochemical; settings: for IC50: para-nitrophenyl α-mannose, pH 5.6, read-out: IC50 ManII; for Ratio: ratio of lyso to ManII IC50 values
T1 construct: The assay for rat liver Golgi α-mannosidase II; from tissue; host or cells: rat liver (Golgi)
T1 sequence (P28494 1-1148): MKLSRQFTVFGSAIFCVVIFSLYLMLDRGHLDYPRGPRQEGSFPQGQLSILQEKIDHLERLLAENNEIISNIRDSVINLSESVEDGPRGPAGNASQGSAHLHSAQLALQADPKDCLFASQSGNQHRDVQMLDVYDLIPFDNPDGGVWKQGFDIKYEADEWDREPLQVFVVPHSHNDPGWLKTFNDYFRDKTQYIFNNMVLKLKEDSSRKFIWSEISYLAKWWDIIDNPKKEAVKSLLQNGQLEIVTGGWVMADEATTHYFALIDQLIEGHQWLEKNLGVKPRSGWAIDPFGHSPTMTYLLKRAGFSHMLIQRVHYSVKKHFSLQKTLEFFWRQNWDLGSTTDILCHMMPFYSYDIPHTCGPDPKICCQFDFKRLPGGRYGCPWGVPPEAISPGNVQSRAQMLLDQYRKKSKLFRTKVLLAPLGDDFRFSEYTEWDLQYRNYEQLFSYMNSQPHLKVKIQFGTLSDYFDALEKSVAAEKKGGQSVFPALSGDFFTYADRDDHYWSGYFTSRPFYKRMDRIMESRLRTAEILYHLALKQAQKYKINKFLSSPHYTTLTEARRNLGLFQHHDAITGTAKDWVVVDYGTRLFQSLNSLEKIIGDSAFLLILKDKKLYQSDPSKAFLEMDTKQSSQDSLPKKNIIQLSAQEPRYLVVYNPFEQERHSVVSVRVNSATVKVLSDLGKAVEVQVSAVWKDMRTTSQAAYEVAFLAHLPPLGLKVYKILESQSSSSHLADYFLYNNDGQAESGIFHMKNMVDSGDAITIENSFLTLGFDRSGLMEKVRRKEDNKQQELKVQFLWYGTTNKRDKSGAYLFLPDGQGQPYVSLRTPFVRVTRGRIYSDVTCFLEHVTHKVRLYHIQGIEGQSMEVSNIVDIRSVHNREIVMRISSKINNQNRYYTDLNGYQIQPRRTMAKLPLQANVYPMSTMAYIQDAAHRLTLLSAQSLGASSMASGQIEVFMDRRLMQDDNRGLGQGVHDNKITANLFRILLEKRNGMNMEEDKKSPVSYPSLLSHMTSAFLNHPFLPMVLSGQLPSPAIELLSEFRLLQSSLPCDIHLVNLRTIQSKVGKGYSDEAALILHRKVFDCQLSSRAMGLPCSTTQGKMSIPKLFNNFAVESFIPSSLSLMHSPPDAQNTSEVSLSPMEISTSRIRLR
Experimental: The assay for rat liver Golgi α-mannosidase II contained 5 mM para-nitrophenylα-mannose, 40 mM sodium acetate pH 5.6, plus serially diluted test compouunds and mannosidase enzyme in a total volume of 50 ul, in 96 well plates. Plates were incubated 45 min at 37° C., then the reaction was stopped with 50 μl of 0.5M sodium carbonate. […] The lysosomal mannosidase was done in the same procedure but with 40 mM sodium acetate buffer pH 5.0. The numbers in the table are IC50 values in μM for inhibition of mannosidase activity.

lysosomal mannosidase = experiment: Lysosomal mannosidase assay (pH 5.0); assay type: biochemical; settings: para-nitrophenyl α-mannose
Experimental: The assay for rat liver Golgi α-mannosidase II contained 5 mM para-nitrophenylα-mannose, 40 mM sodium acetate pH 5.6, plus serially diluted test compouunds and mannosidase enzyme in a total volume of 50 ul, in 96 well plates. Plates were incubated 45 min at 37° C., then the reaction was stopped with 50 μl of 0.5M sodium carbonate. The absorbance of reaction products was read at 405 nm. The lysosomal mannosidase was done in the same procedure but with 40 mM sodium acetate buffer pH 5.0. The numbers in the table are IC50 values in μM for inhibition of mannosidase activity.

MDAY-D2 tumor cells [2] = experiment: L-PHA toxicity assay (inhibition of oligosaccharide processing in cells); assay type: cell-based, mouse; settings: MDAY-D2 mouse lymphoma cells; read-out: IC50 for protection of cells from toxicity of LPHA lectin
Experimental: MDAY-D2 tumor cells were inoculated into 96 well micro-test plates at 2×10^4 cells/well, and containing serial dilutions of SW or SW analogues in MEM plus 10% FCS. The cells were cultured for 18-20 hr, followed by the addition of L-PHA at 25 μg/ml for an additional 24 hr. Cell proliferation was measured by adding 0.5 μCi/well of ^3 H-thymidine for 3-4 hr, harvesting onto glass fibre disks using a Titertek harvester and the disks were counted in a liquid scintillation counter. The apparent IC50 values for SW and the analogues are the drug concentrations showing 50% protection from L-PHA toxicity; that is 50% ^3 H-thymidine incorporated compared with cells grown in the absence of L-PHA. In experiments using the esterase inhibitor diethyl p-nitrophenyl phosphate, the compound was added to MDAY-D2 cells 4 hr prior to the α-mannosidase inhibitors and was present through-out the experiment.

[3] = Cellular toxicity / cell growth with compound alone (no L-PHA); assay type: cell-based; settings: MDAY-D2 mouse lymphoma cells; read-out: Toxicity (cellular toxicity observed with compound alone)
MDAY-D2 tumor cells [4] = settings: no drug; cited from earlier work

Row | selectivity Mannosidase II versus lysosomal mannosidase [1] | Molecule | IC50 [1] [µM] | Ratio [1] | IC50 (lysosomal mannosidase) [µM] | IC50 (MDAY-D2 tumor cells [2]) [µM] | Concentration at which toxicity was seen with compound alone [3] [µM] | D50 for L-PHA toxicity (MDAY-D2 tumor cells [4]) [µg/mL]
1 | favourable to Mannosidase II | OC[C@@H]1[C@H](O)[C@H](O)CN1Cc1ccccc1 [GD002] | 19 | 11.42 | 217 | – | – | –
2 | – | CN1C[C@@H](O)[C@@H](O)[C@H]1CO [GD003, N-methyl-DIL] | 26.3 | 0.517 | 13.6 | 312 | > 5000 | –
3 | – | CCCCN1C[C@@H](O)[C@@H](O)[C@H]1CO [GD004, N-butyl-DIL] | 50.9 | 0.50 | 25.5 | 625 | > 2500 | –
4 | – | CCN1C[C@@H](O)[C@@H](O)[C@H]1CO [GD005, N-ethyl-DIL] | 33.9 | 0.42 | 14.3 | 312 | > 5000 | –
5 | – | CCCN1C[C@@H](O)[C@@H](O)[C@H]1CO [GD006, N-propyl-DIL] | 22.1 | 0.87 | 19.2 | 156 | > 2500 | –
6 | – | OC[C@@H]1[C@H](O)[C@H](O)CN1CC1CC1 [GD008, N-cyclo-propyl-methyl-DIL] | 8.3 | 0.59 | 4.9 | 40 | > 2500 | –
7 | – | CC(O)C1[C@H](O)[C@H](O)CN1CC1CC1 (stereo partly drawn) [GD013] | 114 | 1.69 | 193 | – | – | –
8 | – | CC(O)C1[C@H](O)[C@H](O)CN1CC1CCCCC1 (stereo partly drawn) [GD014] | 140 | 1.12 | 157 | – | – | –
9 | – | L-PHA: toxic plant lectin (leukoagglutinin) purchased from Pharmacia | – | – | – | – | – | 5
